Where two headings read alike, the source gives them in different places.
What was measured:
[1] = assay type: physicochemical; details: for 2-Methyl (%) / 5-Chloro (%): DPG, 55° C
Method: This solution was distributed into 6 vials (3 g each) and varying amounts of cyclohexene were added. The vials were then heated at 55° C. and analyzed periodically.

[2] = Stabilization of 5-Chloro and 2-Methyl mixture by norbornene in 2-propanol, 55° C oven; assay type: physicochemical; details: 2-propanol, 55° C
Source text: This solution was distributed into 6 vials and varying amounts of norbornene added.

[3] = 2-propanol + 2% water, 55° C
Method: A solution of 5-chloro-2methyl-3-isothiazolone ("5-Chloro") and 2-methyl-3-isothiazolone ("2-Methyl") (3.11 g) was prepared in 2-propanol (12.1 g). This solution was distributed in 6 vials. Water (2%) and varying amounts of norbornene were then added. These were then put in a 55° C. oven and analyzed periodically.

[4] = Stabilization of 5-Chloro and 2-Methyl mixture by norbornene in dipropylene glycol containing 0.5% water, 55° C oven; assay type: physicochemical; details: DPG (0.5% water)
Method: To 19.9 g of dipropylene glycol was added 0.1 g of water. […] This solution was distributed into 6 vials and varying amounts of norbornene were added.

[5] = assay type: physicochemical; details: 2-propanol, 55° C
Method: Varying amounts of DHP were added and the vials put in a 55° C. oven. Active ingredient analysis was done periodically.

C1=CCCCC1 [cyclohexene]
stabilizer function (in words) [1]: functions as a stabilizer

Cn1sccc1=O [2-methyl-3-isothiazolone]
% Remaining After X Days ([2]; 0% norbornene, 0 days): 4.9%
% Remaining After X Days ([2]; 0% norbornene, 2 days): 0.4%
% Remaining After X Days ([2]; 0% norbornene, 30 days): 0.7%
stabilization with norbornene (in words) [2]: completely stabilized
% Remaining After X Days ([2]; 3% norbornene, 0 days): 4.7%
% Remaining After X Days ([2]; 3% norbornene, 2 days): 4.4%
% Remaining After X Days ([2]; 3% norbornene, 30 days): 3.9%
% Remaining After X Days ([2]; 6.3% norbornene, 0 days): 4.5%
% Remaining After X Days ([2]; 6.3% norbornene, 2 days): 4.3%
% Remaining After X Days ([2]; 6.3% norbornene, 30 days): 4.0%
% Remaining After X Days ([2]; 11.8% norbornene, 0 days): 4.2%
% Remaining After X Days ([2]; 11.8% norbornene, 2 days): 4.0%
% Remaining After X Days ([2]; 11.8% norbornene, 30 days): 3.9%
% Remaining After X Days ([2]; 16.7% norbornene, 0 days): 4.0%
% Remaining After X Days ([2]; 16.7% norbornene, 2 days): 3.9%
% Remaining After X Days ([2]; 16.7% norbornene, 30 days): 3.7%
% Remaining After X Days ([2]; 21.0% norbornene, 0 days): 3.9%
% Remaining After X Days ([2]; 21.0% norbornene, 2 days): 3.8%
% Remaining After X Days ([2]; 21.0% norbornene, 30 days): 3.7%
2-Methyl (%) / 5-Chloro (%) ([3]; 0% norbornene, 0 days): 1.7%
2-Methyl (%) / 5-Chloro (%) ([3]; 0% norbornene, 7 days): 0.22%
2-Methyl (%) / 5-Chloro (%) ([3]; 1.2% norbornene, 0 days): 2.3%
2-Methyl (%) / 5-Chloro (%) ([3]; 1.2% norbornene, 7 days): 0.14%
2-Methyl (%) / 5-Chloro (%) ([3]; 2.3% norbornene, 0 days): 2.3%
2-Methyl (%) / 5-Chloro (%) ([3]; 2.3% norbornene, 7 days): 0.08%
2-Methyl (%) / 5-Chloro (%) ([3]; 4.2% norbornene, 0 days): 2.2%
2-Methyl (%) / 5-Chloro (%) ([3]; 4.2% norbornene, 7 days): 0.10%
2-Methyl (%) / 5-Chloro (%) ([3]; 8.1% norbornene, 0 days): 2.2%
2-Methyl (%) / 5-Chloro (%) ([3]; 8.1% norbornene, 7 days): 0.10%
2-Methyl (%) / 5-Chloro (%) ([3]; 14.1% norbornene, 0 days): 2.0%
2-Methyl (%) / 5-Chloro (%) ([3]; 14.1% norbornene, 7 days): 0.97%
2-Methyl (%) / 5-Chloro (%) ([3]; 14.1% norbornene, 21 days): 0.1%
2-Methyl (%) / 5-Chloro (%) ([4]; 0% norbornene, 0 days): 4.5%
2-Methyl (%) / 5-Chloro (%) ([4]; 0% norbornene, 14 days): 0.6%
2-Methyl (%) / 5-Chloro (%) ([4]; 1.6% norbornene, 0 days): 4.4%
2-Methyl (%) / 5-Chloro (%) ([4]; 1.6% norbornene, 14 days): 0.18%
2-Methyl (%) / 5-Chloro (%) ([4]; 3.2% norbornene, 0 days): 4.3%
2-Methyl (%) / 5-Chloro (%) ([4]; 3.2% norbornene, 14 days): 3.3%
2-Methyl (%) / 5-Chloro (%) ([4]; 3.2% norbornene, 30 days): 0.6%
2-Methyl (%) / 5-Chloro (%) ([4]; 6.5% norbornene, 0 days): 4.2%
2-Methyl (%) / 5-Chloro (%) ([4]; 6.5% norbornene, 14 days): 3.7%
2-Methyl (%) / 5-Chloro (%) ([4]; 6.5% norbornene, 30 days): 2.7%
2-Methyl (%) / 5-Chloro (%) ([4]; 9.0% norbornene, 0 days): 4.1%
2-Methyl (%) / 5-Chloro (%) ([4]; 9.0% norbornene, 14 days): 3.7%
2-Methyl (%) / 5-Chloro (%) ([4]; 9.0% norbornene, 30 days): 3.3%
2-Methyl (%) / 5-Chloro (%) ([4]; 14.3% norbornene, 0 days): 4.4%
2-Methyl (%) / 5-Chloro (%) ([4]; 14.3% norbornene, 14 days): 3.6%
2-Methyl (%) / 5-Chloro (%) ([4]; 14.3% norbornene, 30 days): 3.3%
2-Methyl (%) / 5-Chloro (%) ([1]; 0% cyclohexene, 0 days): 5.0%
2-Methyl (%) / 5-Chloro (%) ([1]; 0% cyclohexene, 13 days): 0.49%
2-Methyl (%) / 5-Chloro (%) ([1]; 3.2% cyclohexene, 0 days): 4.7%
2-Methyl (%) / 5-Chloro (%) ([1]; 3.2% cyclohexene, 13 days): 0.35%
2-Methyl (%) / 5-Chloro (%) ([1]; 6.8% cyclohexene, 0 days): 4.6%
2-Methyl (%) / 5-Chloro (%) ([1]; 6.8% cyclohexene, 13 days): 0.23%
2-Methyl (%) / 5-Chloro (%) ([1]; 9.1% cyclohexene, 0 days): 4.5%
2-Methyl (%) / 5-Chloro (%) ([1]; 9.1% cyclohexene, 13 days): 0.95%
2-Methyl (%) / 5-Chloro (%) ([1]; 9.1% cyclohexene, 30 days): 0.66%
2-Methyl (%) / 5-Chloro (%) ([1]; 11.8% cyclohexene, 0 days): 4.4%
2-Methyl (%) / 5-Chloro (%) ([1]; 11.8% cyclohexene, 13 days): 0.59%
2-Methyl (%) / 5-Chloro (%) ([1]; 11.8% cyclohexene, 30 days): 0.62%
2-Methyl (%) / 5-Chloro (%) ([1]; 16.7% cyclohexene, 0 days): 4.3%
2-Methyl (%) / 5-Chloro (%) ([1]; 16.7% cyclohexene, 13 days): 2.6%
2-Methyl (%) / 5-Chloro (%) ([1]; 16.7% cyclohexene, 30 days): 0.46%
2-Methyl (%) / 5-Chloro (%) ([5]; 0% DHP, 0 days): 5.3%
2-Methyl (%) / 5-Chloro (%) ([5]; 0% DHP, 12 days): 0.4%
2-Methyl (%) / 5-Chloro (%) ([5]; 3.5% DHP, 0 days): 5.1%
2-Methyl (%) / 5-Chloro (%) ([5]; 3.5% DHP, 12 days): 0.7%
2-Methyl (%) / 5-Chloro (%) ([5]; 6.3% DHP, 0 days): 5.0%
2-Methyl (%) / 5-Chloro (%) ([5]; 6.3% DHP, 12 days): 0.6%
2-Methyl (%) / 5-Chloro (%) ([5]; 11.8% DHP, 0 days): 4.2%
2-Methyl (%) / 5-Chloro (%) ([5]; 11.8% DHP, 12 days): 0.7%
2-Methyl (%) / 5-Chloro (%) ([5]; 16.7% DHP, 0 days): 4.4%
2-Methyl (%) / 5-Chloro (%) ([5]; 16.7% DHP, 12 days): 0.7%
2-Methyl (%) / 5-Chloro (%) ([5]; 21.1% DHP, 0 days): 4.2%
2-Methyl (%) / 5-Chloro (%) ([5]; 21.1% DHP, 12 days): 0.6%
